The structures appear in SMILES notation. Where a name gives a salt, the structure may show the parent alone.

IC50 data for 25 molecules are collected here from patent US12071425B2 (Genentech, Inc., priority 2018, dated 2024).

Sequence of kinase domain of IRE1 alpha (His-tagged kinase dead construct KR, AA G547-L977, D688N) (O75460 547-977 D688N): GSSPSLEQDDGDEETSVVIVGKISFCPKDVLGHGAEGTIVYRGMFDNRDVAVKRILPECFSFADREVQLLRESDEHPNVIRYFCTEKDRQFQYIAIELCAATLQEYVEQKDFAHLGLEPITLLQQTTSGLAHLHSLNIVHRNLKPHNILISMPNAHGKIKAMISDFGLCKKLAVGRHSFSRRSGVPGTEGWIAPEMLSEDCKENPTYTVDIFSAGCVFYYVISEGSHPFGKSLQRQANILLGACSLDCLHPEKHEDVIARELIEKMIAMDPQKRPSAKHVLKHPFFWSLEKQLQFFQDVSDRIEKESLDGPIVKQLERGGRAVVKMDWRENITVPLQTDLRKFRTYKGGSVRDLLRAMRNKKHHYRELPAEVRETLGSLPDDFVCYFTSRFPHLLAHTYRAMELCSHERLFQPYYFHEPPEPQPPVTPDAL

The test has as its target kinase domain of IRE1 alpha (His-tagged kinase dead construct KR, AA G547-L977, D688N) (Homo sapiens (Human), UniProt O75460, D688N). Kind of test: IRE1α TR-FRET competition binding assay. The following applies: competition with Kinase Tracer 236, 0.1 μM; one hour at room temperature. On the procedure:
To determine the affinity of compound binding to the kinase domain of IRE1 alpha, a Time Resolved Fluorescence Resonance Energy Transfer (TR-FRET) competition assay was used. A His-tagged IRE1 alpha kinase dead construct containing the kinase and RNase domains (KR, AA G547-L977, D688N) was expressed in Sf9 insect cells. The purified protein (final concentration 0.006 μM micromolar) was pre-incubated with anti-His Europium labeled antibody (Life Technologies PV5596, final concentration 0.002 μM micromolar) for one hour at 4° C. in 1X TR-FRET Assay Buffer (50 mM HEPES, pH 7.5.10 mM MgCl2, 0.083 mM Brij 35, 1 mM DTT, and 0.1% bovine gamma globulin) prior to addition to test compounds. A fluorescent labeled probe based on an ATP competitive inhibitor (Kinase Tracer 236, Life Technologies PV5592) is added to a final concentration of 0.1 μM (micromolar). Reactions were carried out for one hour at room temperature in a final volume of 20 μL (microliter) in 384 well white ProxiPlates (Perkin Elmer 6008289). Binding of the tracer to the IRE1 protein alpha was detected in an Envision instrument (PerkinElmer) equipped with a TRF laser option and a LANCE/Delfia Dual/Bias D400/D630 mirror (Ex 347 nm, 1st Em 665 nm, 2nd Em 615 nm).
Exemplary compounds in Table A1 were tested in the IRE1α binding assays.
Background: In TR-FRET formats the signal depends on donor and acceptor labels being close together.
Usually IC50 stands for the concentration that inhibits the measured activity by half. Regarding `CC(F)(F)CCS(=O)(=O)Nc1c(F)cc(Oc2ncccc2-c2ccnc(N[C@@H]3CNC[C@@H](F)C3)n2)c(F)c1F` [Compound 253, 3,3-Difluoro-N-(2,3,6-trifluoro-4-((3-(2-(((3S,5S)-5-fluoropiperidin-3-yl)amino)pyrimidin-4-yl)pyridin-2-yl)oxy)phenyl)butane-1-sulfonamide], the IC50 worked out at 1.9 nM.

On to `OC(CNc1cccc(Oc2ncccc2-c2ccnc(N[C@H]3CCCNC3)n2)c1F)C(F)(F)F` (single isomer, unassigned) [Compound 201], for which the IC50 was determined as 210 nM. Molecule `O=S(=O)(CCC1CC1(F)F)Nc1ccc(Oc2ncccc2-c2ccnc(N[C@H]3CCCNC3)n2)c(F)c1F` (stereo partly drawn) [Compound 217, N-(2,3-difluoro-4-((3-(2-(((S)-piperidin-3-yl)amino)pyrimidin-4-yl)pyridin-2-yl)oxy)phenyl)-2-(2,2-difluorocyclopropyl)ethane-1-sulfonamide] came in with an IC50 of 16 nM. The molecule `CN(C)[C@H]1CC[C@H](Nc2nccc(-c3cccnc3Oc3cc(F)c(NS(=O)(=O)CCC(C)(F)F)c(F)c3F)n2)CC1` [Compound 310, N-(4-((3-(2-(((1r,4r)-4-(Dimethylamino)cyclohexyl)amino)pyrimidin-4-yl)pyridin-2-yl)oxy)-2,3,6-trifluorophenyl)-3,3-difluorobutane-1-sulfonamide] came in with an IC50 of 0.32 nM. As for `CCC(F)(F)CS(=O)(=O)Nc1c(F)cc(Oc2ncccc2-c2ccnc(N[C@H]3CCCNC3)n2)c(F)c1F` [Compound 194, (S)-2,2-difluoro-N-(2,3,6-trifluoro-4-((3-(2-(piperidin-3-ylamino)pyrimidin-4-yl)pyridin-2-yl)oxy)phenyl)butane-1-sulfonamide], the IC50 came to 4 nM. For the molecule `CN=S(=O)(Cc1ccccc1)Nc1ccc(Oc2ncccc2-c2ccnc(N[C@H]3CCCNC3)n2)c(F)c1F` (stereo partly drawn) [Compound 273, N-(2,3-difluoro-4-((3-(2-(((S)-piperidin-3-yl)amino)pyrimidin-4-yl)pyridin-2-yl)oxy)phenyl)-N′-methyl-1-phenylmethanesulfonimidamide], the IC50 amounted to 410 nM. In the case of `Cc1ccccc1CS(=O)(=O)Nc1c(F)cc(Oc2ncccc2-c2ccnc(N[C@@H]3CNC[C@@](C)(F)C3)n2)c(F)c1F` [Compound 290, 1-o-Tolyl-N-(2,3,6-trifluoro-4-((3-(2-(((3S,5S)-5-fluoro-5-methylpiperidin-3-yl)amino)pyrimidin-4-yl)pyridin-2-yl)oxy)phenyl)methanesulfonamide] it was 0.4 nM; in that of `N[C@H]1CC[C@H](Nc2nccc(-c3cccnc3Oc3c(F)cc(NS(=O)(=O)c4ccccc4Cl)cc3Cl)n2)CC1` [Compound 104, N-[4-[[3-[2-[(4-aminocyclohexyl)amino]pyrimidin-4-yl]-2-pyridyl]oxy]-3-chloro-5-fluoro-phenyl]-2-chloro-benzenesulfonamide hydrochloride], 5.9 nM; in that of `CCCS(=O)(=O)Nc1ccc(Cl)c(Oc2ncccc2-c2ccnc(N[C@H]3CCCNC3)n2)c1F` [Compound 143, (S)—N-(4-Chloro-2-fluoro-3-((3-(2-(piperidin-3-ylamino)pyrimidin-4-yl)pyridin-2-yl)oxy)phenyl)propane-1-sulfonamide hydrochloride], 34 nM.

Take `Cc1cc(CS(=O)(=O)Nc2c(F)cc(Oc3ncccc3-c3ccnc(N[C@@H]4CNC[C@@](C)(F)C4)n3)c(F)c2F)no1` [Compound 203, 1-(5-methylisoxazol-3-yl)-N-(2,3,6-trifluoro-4-((3-(2-(((3S,5S)-5-fluoro-5-methylpiperidin-3-yl)amino)pyrimidin-4-yl)pyridin-2-yl)oxy)phenyl)methanesulfonamide]: the IC50 amounted to 3.3 nM. In the case of `CN1CCN(Cc2ccc(NC(=O)Nc3ccc(Oc4ncccc4-c4ccnc(N[C@@H]5CNC[C@@H](F)C5)n4)cc3)cc2C(F)(F)F)CC1` [Compound 285, 1-(4-((3-(2-(((3S,5S)-5-Fluoropiperidin-3-yl)amino)pyrimidin-4-yl)pyridin-2-yl)oxy)phenyl)-3-(4-((4-methylpiperazin-1-yl)methyl)-3-(trifluoromethyl)phenyl)urea hydrochloride] it was 8.9 nM. `O=S(=O)(Cc1ccc(F)cc1)Nc1c(F)cc(Oc2ncccc2-c2ccnc(N[C@@H]3CNCC(CF)C3)n2)c(F)c1F` (stereo in doubt) [Compound 316, 1-(4-Fluorophenyl)-N-(2,3,6-trifluoro-4-((3-(2-(((3S,5S)-5-(fluoromethyl)piperidin-3-yl)amino)pyrimidin-4-yl)pyridin-2-yl)oxy)phenyl)methanesulfonamide]: the IC50 amounted to 0.35 nM. In the case of `COc1ccccc1CS(=O)(=O)Nc1ccc(Oc2ncccc2-c2ccnc(N[C@H]3CCCNC3)n2)c(F)c1F` [Compound 380, (S)—N-(2,3-Difluoro-4-((3-(2-(piperidin-3-ylamino)pyrimidin-4-yl)pyridin-2-yl)oxy)phenyl)-1-(2-methoxyphenyl)methanesulfonamide], the IC50 was 0.9 nM. On to `OC(CNc1cccc(Oc2ncccc2-c2ccnc(N[C@H]3CCCNC3)n2)c1F)C(F)(F)F` (single isomer, unassigned) [Compound 200], for which the IC50 came out at 530 nM. The value for `O=S(=O)(Cc1cccc(F)c1)Nc1ccc(Oc2ncccc2-c2ccnc(N[C@H]3CCCNC3)n2)c(F)c1F` [Compound 231, (S)-N-(2,3-difluoro-4-((3-(2-(piperidin-3-ylamino)pyrimidin-4-yl)pyridin-2-yl)oxy)phenyl)-1-(3-fluorophenyl)methanesulfonamide] was 7.2 nM; that for `O=S(=O)(CC1(F)CC1)Nc1ccc(Oc2ncccc2-c2ccnc(N[C@H]3CCCNC3)n2)c(F)c1F` [Compound 188, (S)-N-(2,3-difluoro-4-((3-(2-(piperidin-3-ylamino)pyrimidin-4-yl)pyridin-2-yl)oxy)phenyl)-1-(1-fluorocyclopropyl)methanesulfonamide] was 11 nM; that for `N#Cc1ccc(CS(=O)(=O)Nc2c(F)cc(Oc3ncccc3-c3ccnc(N[C@@H]4CNC[C@H](CF)C4)n3)c(F)c2F)cc1` [Compound 321, 1-(4-Cyanophenyl)-N-(2,3,6-trifluoro-4-((3-(2-(((3S,5R)-5-(fluoromethyl)piperidin-3-yl)amino)pyrimidin-4-yl)pyridin-2-yl)oxy)phenyl)methanesulfonamide] was 0.65 nM. `O=S(=O)(Cc1ccccc1F)Nc1c(F)cc(Oc2ncccc2-c2ccnc(NC3CNCC(C4CC4)C3)n2)c(F)c1F` (single isomer, unassigned) [Compound 325, N-(4-((3-(2-((5-Cyclopropylpiperidin-3-yl)amino)pyrimidin-4-yl)pyridin-2-yl)oxy)-2,3,6-trifluorophenyl)-1-(2-fluorophenyl)methanesulfonamide]: the IC50 amounted to 22 nM. As to `C[C@@]1(F)CNC[C@@H](Nc2nccc(-c3cccnc3Oc3cc(F)c(NS(=O)(=O)Cc4c(F)cccc4F)c(F)c3F)n2)C1` [Compound 282, 1-(2,6-Difluorophenyl)-N-(2,3,6-trifluoro-4-((3-(2-(((3S,5S)-5-fluoro-5-methylpiperidin-3-yl)amino)pyrimidin-4-yl)pyridin-2-yl)oxy)phenyl)methanesulfonamide], the IC50 was 0.27 nM. `O=S(=O)(Nc1ccc(Oc2ncccc2-c2ccnc(N[C@H]3CCCNC3)n2)c(F)c1F)c1cc(F)cc(F)c1` [Compound 206, N-[2,3-Difluoro-4-[[3-[2-[[(3S)-3-piperidyl]amino]pyrimidin-4-yl]-2-pyridyl]oxy]phenyl]-3,5-difluoro-benzenesulfonamide] displayed an IC50 of 8.2 nM.

For `O=S(=O)(Cc1ccc(C(F)(F)F)cc1)Nc1c(F)cc(Oc2ncccc2-c2ccnc(N[C@@H]3CNC[C@@H](F)C3)n2)c(F)c1F` [Compound 370, N-(2,3,6-Trifluoro-4-((3-(2-(((3S,5S)-5-fluoropiperidin-3-yl)amino)pyrimidin-4-yl)pyridin-2-yl)oxy)phenyl)-1-(4-(trifluoromethyl)phenyl)methanesulfonamide], the IC50 was determined as 2 nM. `O=S(=O)(Cc1ccccc1F)Nc1c(F)cc(Oc2ncccc2-c2ccnc(N[C@@H]3CNC[C@@H](F)C3)n2)c(F)c1F` [Compound 355, 1-(2-Fluorophenyl)-N-[2,3,6-trifluoro-4-[[3-[2-[[(3S,5S)-5-fluoro-3-piperidyl]amino]pyrimidin-4-yl]-2-pyridyl]oxy]phenyl]methanesulfonamide] came in with an IC50 of 0.2 nM. The value for `N#Cc1cc(Cl)ccc1CS(=O)(=O)Nc1c(F)cc(Oc2ncccc2-c2ccnc(N[C@@H]3CNC[C@@H](F)C3)n2)c(F)c1F` [Compound 362] was 0.2 nM. As for `O=S(=O)(Cc1ccccc1)Nc1ccc(Oc2ncccc2-c2ccnc(N[C@H]3CCCNC3)n2)cc1C(F)(F)F` [Compound 113, (S)-1-phenyl-N-(4-((3-(2-(piperidin-3-ylamino)pyrimidin-4-yl)pyridin-2-yl)oxy)-2-(trifluoromethyl)phenyl)methanesulfonamide], the IC50 was 11 nM.

Take `Cc1ccc(CS(=O)(=O)Nc2c(F)cc(Oc3ncccc3-c3ccnc(N[C@@H]4CNC[C@@H](F)C4)n3)c(F)c2F)cc1` [Compound 375, 1-p-Tolyl-N-(2,3,6-trifluoro-4-((3-(2-(((3S,5S)-5-fluoropiperidin-3-yl)amino)pyrimidin-4-yl)pyridin-2-yl)oxy)phenyl)methanesulfonamide]: the 50% inhibitory concentration (IC50) amounted to 0.4 nM.
